Source: ChEMBL document CHEMBL1201862, “PubChem BioAssay data set” (2004)
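Grown in 96-well plates, cells were treated for 48 hours with each compound at five concentrations. Insufficient inhibition: endpoint recorded as highest concentration tested. GI50 is the concentration that inhibits growth by half.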 Calls of active or inactive are those of the source. No stated cut-off is given here; in the data, active = GI50 up to about 1.1 µM and inactive = higher.

Key:
Assay in all cases: growth of human tumour cells (NCI), 48 h
NCI-H23 = system: NCI-H23
HT-29 = system: HT-29
SNB-19 = system: SNB-19
NCI-H460 = system: NCI-H460
OVCAR-3 = system: OVCAR-3
KM12 = system: KM12
COLO 205 = system: COLO 205
U-251 = system: U-251
SW-620 = system: SW-620
SF-539 = system: SF-539
SK-OV-3 = system: SK-OV-3
K562 = system: K562
SNB-75 = system: SNB-75
OVCAR-8 = system: OVCAR-8
IGROV-1 = system: IGROV-1
SK-MEL-5 = system: SK-MEL-5
SN12C = system: SN12C
HCT-15 = system: HCT-15
ACHN = system: ACHN
786-0 = system: 786-0

| SMILES | GI50 (NCI-H23) | GI50 (HT-29) | GI50 (SNB-19) | GI50 (NCI-H460) | GI50 (OVCAR-3) | GI50 (KM12) | GI50 (COLO 205) | GI50 (U-251) | GI50 (SW-620) | GI50 (SF-539) | GI50 (SK-OV-3) | GI50 (K562) | GI50 (SNB-75) | GI50 (OVCAR-8) | GI50 (IGROV-1) | GI50 (SK-MEL-5) | GI50 (SN12C) | GI50 (HCT-15) | GI50 (ACHN) | GI50 (786-0) |
| --- | --- | --- | --- | --- | --- | --- | --- | --- | --- | --- | --- | --- | --- | --- | --- | --- | --- | --- | --- | --- |
| C=CCNC(=O)C(C)C1CCC2(C)C=CC(=O)C(C)=C2C1O (stereo unspecified) | > 100 µM (inactive) | > 100 µM (inactive) | > 100 µM (inactive) | > 100 µM (inactive) | > 100 µM (inactive) | > 100 µM (inactive) | > 100 µM (inactive) | > 100 µM (inactive) | > 100 µM (inactive) | > 100 µM (inactive) | > 100 µM (inactive) | > 100 µM (inactive) | > 100 µM (inactive) | > 100 µM (inactive) | > 100 µM (inactive) | > 100 µM (inactive) | > 100 µM (inactive) | > 100 µM | – | – |
| COC(=O)C1(CCCCCBr)CCCCCCCCCCC1=O (stereo unspecified) | 45.9 µM (inactive) | 42.2 µM (inactive) | > 100 µM (inactive) | 58.6 µM (inactive) | 28.4 µM (inactive) | 46.5 µM (inactive) | 31.8 µM (inactive) | 28.3 µM (inactive) | 72.4 µM (inactive) | 90.2 µM (inactive) | > 100 µM (inactive) | 32.9 µM (inactive) | – | 54.2 µM (inactive) | 30.5 µM (inactive) | 16.3 µM (inactive) | 37.6 µM (inactive) | 38.8 µM | 40.7 µM (inactive) | 30.3 µM (inactive) |
| CSCCCCCCCCCCOc1ccc(C=C2C(=C(C#N)C#N)c3ccccc3C2=C(C#N)C#N)cc1 | 22.1 µM (inactive) | 17.3 µM (inactive) | – | 17.7 µM (inactive) | 16.4 µM (inactive) | 19 µM (inactive) | – | 17.5 µM (inactive) | 17.8 µM (inactive) | 18 µM (inactive) | 17.6 µM (inactive) | 30.6 µM (inactive) | – | 17.5 µM (inactive) | 17.3 µM (inactive) | 17.9 µM (inactive) | – | 23.1 µM | 13.1 µM (inactive) | 17.5 µM (inactive) |
| CC1=CC(=O)N(n2c(C)n[nH]c2=O)C1=O | > 100 µM (inactive) | > 100 µM (inactive) | > 100 µM (inactive) | > 100 µM (inactive) | > 100 µM (inactive) | > 100 µM (inactive) | > 100 µM (inactive) | > 100 µM (inactive) | > 100 µM (inactive) | > 100 µM (inactive) | > 100 µM (inactive) | > 100 µM (inactive) | – | > 100 µM (inactive) | > 100 µM (inactive) | > 100 µM (inactive) | > 100 µM (inactive) | > 100 µM | > 100 µM (inactive) | > 100 µM (inactive) |
| O=C1c2cccc3c2C(=O)c2c(cccc21)OCCOCCOCCOCCO3 | > 100 µM (inactive) | > 100 µM (inactive) | > 100 µM (inactive) | 78.3 µM (inactive) | > 100 µM (inactive) | – | – | > 100 µM (inactive) | > 100 µM (inactive) | > 100 µM (inactive) | > 100 µM (inactive) | 61.4 µM (inactive) | 40.9 µM (inactive) | > 100 µM (inactive) | > 100 µM (inactive) | 75.7 µM (inactive) | > 100 µM (inactive) | > 100 µM | 78.5 µM (inactive) | – |
| COc1ccc2nc(-c3ccc(O)cc3)sc2c1 | 20.8 µM (inactive) | 20 µM (inactive) | 34.7 µM (inactive) | 39.3 µM (inactive) | 19.6 µM (inactive) | 26.5 µM (inactive) | 21.5 µM (inactive) | 19.6 µM (inactive) | 21.8 µM (inactive) | 21.4 µM (inactive) | 32.5 µM (inactive) | 36.2 µM (inactive) | – | 20.7 µM (inactive) | 19.1 µM (inactive) | 18.2 µM (inactive) | 20.6 µM (inactive) | 17.9 µM | 18 µM (inactive) | 15.6 µM (inactive) |
| Cc1nc(-n2nc(-c3ccccc3)cc2-c2ccccc2)sc1C(=O)/C=C/c1ccc(Cl)c(Cl)c1 | 49.2 µM (inactive) | > 10 µM (inactive) | 16.3 µM (inactive) | > 100 µM (inactive) | 15.9 µM (inactive) | 8.67 µM (inactive) | 28.7 µM (inactive) | 11.6 µM (inactive) | 21.5 µM (inactive) | 18.3 µM (inactive) | > 100 µM (inactive) | 15.8 µM (inactive) | – | 14.1 µM (inactive) | 12.1 µM (inactive) | – | 15.7 µM (inactive) | 15.9 µM | 23.7 µM (inactive) | 15.7 µM (inactive) |
| C/C=C/c1cc(=O)c([C@@H]2OC(=O)c3cc(OC)cc(OC)c32)co1 [VERMISTATIN] | 29.6 µM (inactive) | 34.6 µM (inactive) | > 100 µM (inactive) | 58.3 µM (inactive) | 20.7 µM (inactive) | 31.6 µM (inactive) | 22 µM (inactive) | – | 55.5 µM (inactive) | 26.7 µM (inactive) | – | 33.8 µM (inactive) | 6.49 µM (inactive) | 46.8 µM (inactive) | 37 µM (inactive) | 50.5 µM (inactive) | – | – | 45.3 µM (inactive) | – |
